Tests used:
Type in all cases: cell-based, Choristoneura fumiferana
[1] = system: GAL4:CfEcR-DEF/VP16:LmUSP-EF; experiment: Luciferase reporter gene induction in stably transfected CHO cells (pFRLuc); details: stable clone 1A2, CHO cells, 0, 1, 5, or 25 μM ligand, 48 hours, maximum fold induction
Description: This Example describes the construction of host cells comprising the EcR/invertebrate RXR-based gene expression modulation system according to the invention. To make stable cells expressing GAL4:CfEcR-DEF/VP16:LmUSP-EF (switch 1.18, prepared as described in Example 1), Applicants transfected the gene expression cassettes encoding the hybrid GAL4:CfEcR-DEF and VP16:LmUSP-EF polypeptides into Chinese hamster ovary CHO cells comprising a stably transfected reporter plasmid pFRLuc. […] The cells were harvested and reporter activity was assayed.
The transfected CHO cells were grown in the presence of 0, 1, 5, or 25 μM PonA steroid ligand or GS™-E non-steroid ligand for 48 hours. The cells were harvested, lysed and the reporter activity was measured. Total fly luciferase relative light units (RLU) are presented. The numbers on the top of the bars correspond to the maximum fold induction for each treatment. Bulk populations of cells were selected for resistance to the antibiotic neomycin (VP16:LmUSP/VP16:RXR constructs have the neomycin resistance gene incorporated). Several clones from each population were isolated by end point dilution. Three clones of stably transfected GAL4:CfEcR-DEF/VP16:LmUSP-EF cells were analyzed (see FIG. 10, clone 1A2; the data related to the two other clones are not shown).

[2] = system: CfEcR/LmUSP-based switch; experiment: Luciferase reporter induction by two-hybrid switches transfected into NIH3T3 cells; details: non-steroid compared with steroid PonA, 0, 1, 5 or 25 μM, 48 hours
Procedure: (§1) Transfections: DNAs corresponding to the various switch constructs outlined in Example 1, specifically switches 1.1 through 1.8, were transfected into mouse NIH3T3 cells (ATCC) as follows. […] For 12-well plates, 4 μl of Superfect™ was mixed with 100 μl of growth medium. […] The cells were harvested and reporter activity was assayed. […] Ligands: The steroidal ligand Ponasterone A (PonA) was purchased from Sigma Chemical Company. […] Reporter Assays: Cells were harvested 48 hours after adding ligands. […] Twenty μl of lysate were assayed. […] In addition, LmUSP worked better than vertebrate RXR as a CfEcR partner. In particular, both the sensitivity, i.e. the concentration of ligand required for transactivation, and the magnitude of transactivation were increased with LmUSP compared to vertebrate RXR. […]
Briefly, full-length EcR and truncated EcRs, created by a truncation mutation at the junctions of A/B, C, D, E and F domains and fused to a GAL4 DNA binding domain encoding polynucleotide (SEQ ID NO: 33) as described in Example 1 above. […] The cells were harvested, lysed and luciferase reporter activity was measured in the cell lysates. […] The analysis was performed in triplicate and mean luciferase counts [total relative light units (RLU)] were determined as described above.

[3] = system: GAL4CfEcR-DEF/VP16LmUSP-EF (switch 1.18); experiment: Effect of a second ligand on transactivation of the gene switch with pFRLuc in NIH3T3 cells; details: non-steroid ligand 1 μM or less, absence of 9-Cis-retinoic acid, 48 hours
Procedure: as §1
In particular, Applicants have determined the effect of 9-cis-retinoic acid on the transactivation potential of the GAL4CfEcR-DEF/VP16LmUSP-EF (switch 1.18) gene switch along with pFRLuc in NIH3T3 cells in the presence of non-steroid (GSE) for 48 hours.
Briefly, GAL4CfEcR-DEF, pFRLuc and VP16LmUSP-EF were transfected into NIH3T3 cells and the transfected cells were treated with 0, 0.04, 0.2, 1, 5 and 25 μM non-steroidal ligand (GSE) and 0, 1, 5 and 25 μM 9-Cis-retinoic acid (Sigma Chemical Company). The reporter activity was measured at 48 hours after adding ligands.

| SMILES | fold induction [1] | sensitivity of the switch to ligand [2] | induction of reporter activity [3] |
| --- | --- | --- | --- |
| CC(C)CC[C@@H](O)[C@](C)(O)[C@H]1CC[C@@]2(O)C3=CC(=O)[C@@H]4C[C@@H](O)[C@@H](O)C[C@]4(C)[C@H]3CC[C@]12C [PonA, Ponasterone A] | 42 fold | – | – |
| CCc1c(OC)cccc1C(=O)NN(C(=O)c1cc(C)cc(C)c1)C(C)(C)C [non-steroidal ligand, N-(2-ethyl-3-methoxybenzoyl)-N′-(3,5-dimethylbenzoyl)-N′-t-butylhydrazine] | 162 fold | more sensitive | very little induction |

Source: patent US9493540B2, “Ecdysone receptor/invertebrate retinoid X receptor-based inducible gene expression system” (Intrexon Corporation, priority 2001, dated 2016)
